The target of assay [1] is T1, IL-23-stimulated phosphorylated STAT3 in peripheral blood mononuclear cells (PBMCs) (Homo sapiens, UniProt Q5VWK5).
T1 sequence (Q5VWK5 24-629): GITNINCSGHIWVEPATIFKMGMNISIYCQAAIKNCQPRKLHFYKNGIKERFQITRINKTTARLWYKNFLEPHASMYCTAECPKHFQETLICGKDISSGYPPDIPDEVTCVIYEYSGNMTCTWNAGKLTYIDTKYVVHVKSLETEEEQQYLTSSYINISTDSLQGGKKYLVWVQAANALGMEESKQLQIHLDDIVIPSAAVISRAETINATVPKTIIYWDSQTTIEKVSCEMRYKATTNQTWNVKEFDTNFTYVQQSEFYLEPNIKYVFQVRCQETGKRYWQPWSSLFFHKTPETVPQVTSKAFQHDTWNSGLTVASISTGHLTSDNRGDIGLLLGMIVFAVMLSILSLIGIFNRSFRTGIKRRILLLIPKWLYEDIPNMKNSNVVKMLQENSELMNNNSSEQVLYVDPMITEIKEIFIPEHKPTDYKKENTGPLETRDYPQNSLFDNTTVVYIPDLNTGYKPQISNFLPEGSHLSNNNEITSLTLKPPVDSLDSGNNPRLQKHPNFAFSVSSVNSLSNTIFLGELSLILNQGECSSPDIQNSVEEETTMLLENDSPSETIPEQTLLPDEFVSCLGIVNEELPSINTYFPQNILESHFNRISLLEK
Kind of assay: PBMC pSTAT3 Assay. The settings on record: PBMCs from healthy donors, IL-23 5 ng/mL, 30 minutes, read-out: PBMC pSTAT3 IC50. The assay is classed as cell-based. How it is done:
Cryopreserved peripheral blood mononuclear cells (PBMCs) from healthy donors were thawed and washed twice in ImmunoCult-XF T cell expansion medium (XF-TCEM) supplemented with CTL anti-aggregate wash. The cells were counted, resuspended at 2-6×10^5 cells per mL XF-TCEM supplemented with penicillin/streptomycin and 100 ng/mL IL-1β (BioLegend, 579404), and cultured in tissue culture flasks coated with anti-CD3 (eBioscience, 16-0037-85 or BD Pharmingen, 555329) at 37° C. in 5% CO2. On day 4 of culture, PBMCs were collected, washed twice in RPMI-1640 supplemented with 0.1% BSA (RPMI-BSA), and incubated in RPMI-BSA in upright tissue culture flasks for ˜4 hours at 37° C. in 5% CO2. Following this ‘starvation,’ a total of 6×10^4 cells in 30 μL RPMI-BSA was transferred into each well of a 384-well plate pre-spotted with peptide or DMSO. The cells were incubated for 30 minutes prior to the addition of IL-23 at a final concentration of 5 ng/mL. The cells were stimulated with cytokine for 30 minutes at 37° C. in 5% CO2, transferred onto ice for 10 minutes, and lysed. Cell lysates were stored at −80° C. until phosphorylated STAT3 was measured using the phospho-STAT panel kit (Meso Scale Discovery, K15202D).

The next assay concerns the target T2, IL-23R (Homo sapiens, UniProt Q5VWK5).
T2 construct: host or cells: HEK293
T2 sequence (Q5VWK5 24-629): T1 sequence (Q5VWK5 24-629)
Kind of assay: IL23R Reporter Assay. The settings on record: HEK293 cells containing IL-23R, IL-12Rβ1 and STAT-inducible luciferase reporter; 10 ng/mL IL-23; 5 h; read-out: IC50. It counts as cell-based. How it is done:
Compounds were serially diluted in 100% (v/v) DMSO) and plated using an Echo acoustic dispenser (Labcyte) into 1536-well non-treated black assay plates (Corning #9146). […] After 5 h at 37° C., 5% CO2, 95% relative humidity, cells were placed at 20° C. and treated with BioGlo reagent (Promega) according to the Manufacturer's instructions. Luminescence was measured on a Pherastar FSX (BMG LabTech).
For orientation: Reporter assays use an easily measured gene product as a stand-in for the process of interest.

Assay [2] has as its target T3, interleukin-23 receptor (IL-23R), Q5VWK5.
T3 chain: T1 sequence (Q5VWK5 24-629)
The experiment in a line: cell-based or functional assay.

Starred links: 1 amine or outer side, 2 acyl side, 3 side chain; linkers in the order of their positions; H or OH if unused. Positions of bridges follow the written chain, without caps; N, C: chain ends. Non-standard residues stand in square brackets, D forms with d. Residues, ends and D or L forms follow the SMILES beside them. No end group written: not given here. *: point of attachment. X5 = 2‑amino‑3‑(3-carbamoyl-1H-pyrazol-4-yl)propanoic acid, NC(=O)c1n[nH]cc1CC(N[*:1])C(=O)[*:2]; Trp(7-(3-AcNH-Ph)) = CC(=O)Nc1cccc(-c2cccc3c(C[C@H](N)C(=O)O)c[nH]c23)c1; X4 = O=C([C@H](Cc1ccc2cc(-c3ccc(N4CCOCC4)cc3)ccc2c1)N[*:1])[*:2]; NH(CH2CH2O)2CH2CH2NMe3+ = C[N+](C)(C)CCOCCOCCN*; 2Nal(6-OH) = N[C@@H](Cc1ccc2cc(O)ccc2c1)C(=O)O; Trp(7-Me) = Cc1cccc2c(C[C@H](N)C(=O)O)c[nH]c12; dLys(Me3) = C[N+](C)(C)CCCC[C@@H](N)C(=O)O; X9 = CN(CC*)C(=O)CCOCCOCC[N+](C)(C)C; AEF = NCCOc1ccc(C[C@H](N)C(=O)O)cc1; 3Pal = N[C@@H](Cc1cccnc1)C(=O)O; Lys(Me) = CNCCCC[C@H](N)C(=O)O; Pen = CC(C)(S)[C@H](N)C(=O)O; Thp = NC1(C(=O)O)CCOCC1; Sar = CNCC(=O)O

The term IC50 denotes the point on the concentration scale where inhibition reaches its midpoint. Take `CC(=O)NCCCC[C@@H]1NC(=O)[C@H](Cc2c[nH]c3c(C)cccc23)NC(=O)[C@H]([C@@H](C)O)NC(=O)[C@@H]2CCCCNCCOc3ccc(cc3)C[C@@H](C(=O)N[C@@H](Cc3ccc4cc(O)ccc4c3)C(=O)NC3(C(=O)N[C@@H](CCCCNC(C)=O)C(=O)N[C@@H](CC(N)=O)C(=O)N[C@@H](Cc4cccnc4)C(=O)N(C)CC(N)=O)CCOCC3)NC(=O)[C@@H](NC1=O)C(C)(C)SSC(C)(C)[C@H](NC(=O)CCCCC[N+](C)(C)C)C(=O)N2` [compound 112, 5cpaCO-Pen(3)-K(5)-T-7MeW-K(Ac)-Pen(3)-AEF(5)-6OH2Nal-THP-K(Ac)-N-3Pya-Sar-CONH2]: the IC50 in assay [1] is less than 0.01 nM; on IL-23R it was less than 10 nM.
Consider `CC(=O)NCCCC[C@@H]1NC(=O)[C@H](Cc2c[nH]c3c(-c4cccc(NC(C)=O)c4)cccc23)NC(=O)[C@H]([C@@H](C)O)NC(=O)[C@H](CC(N)=O)NC(=O)[C@@H](NC(=O)[C@@H](CCCC[N+](C)(C)C)NC(C)=O)C(C)(C)SSC(C)(C)[C@@H](C(=O)N[C@@H](Cc2ccc(OCCN)cc2)C(=O)N[C@@H](Cc2ccc3cc(O)ccc3c2)C(=O)NC2(C(=O)N[C@@H](CCC(=O)O)C(=O)N[C@@H](CC(N)=O)C(=O)N[C@@H](Cc3cccnc3)C(=O)N(C)CC(N)=O)CCOCC2)NC1=O` [compound 68, MeCO-k(Me)3-Pen(3)-N-T-7(3NAcPh)W-K(Ac)-Pen(3)-AEF-6OH2Nal-THP-E-N-3Pya-Sar-CONH2] (Ac-[dLys(Me3)][Pen]NT[Trp(7-(3-AcNH-Ph))]K(Ac)[Pen][AEF][2Nal(6-OH)][Thp]EN[3Pal][Sar]-NH2; disulfide 2-7), for which the IC50 in assay [1] was 0.01 to 0.1 nM; at IL-23R it was less than 10 nM.
On the same counts, the results for `CC(=O)N[C@@H]1C(=O)N[C@@H](CC(=O)N(C)C)C(=O)N[C@@H]([C@@H](C)O)C(=O)N[C@@H](Cc2c[nH]c3c(C)cccc23)C(=O)N[C@@H](CCCCN(C)C(C)=O)C(=O)N[C@H](C(=O)N[C@@H](Cc2ccc(OCCN(C)C(=O)CCOCCOCC[N+](C)(C)C)cc2)C(=O)N[C@@H](Cc2ccc3cc(O)ccc3c2)C(=O)NC2(C(=O)N[C@@H](CCCCN(C)C(C)=O)C(=O)N[C@@H](CC(N)=O)C(=O)N[C@@H](Cc3cccnc3)C(=O)N(C)CC(=O)NCCOCCOCC[N+](C)(C)C)CCOCC2)C(C)(C)SSC1(C)C` [compound 315, MeCO-Pen(3)-N(NMe2)-T-7MeW-K(NMeAc)-Pen(3)-AEF(NMePEG3a)-6OH2Nal-THP-K(NMeAc)-N-3Pya-Sar-CONH(PEG3a)] (Ac-[Pen]D(NMe2)T[Trp(7-Me)][Lys(Me)](Ac)[Pen]Y(X9)[2Nal(6-OH)][Thp][Lys(Me)](Ac)N[3Pal][Sar]-{NH(CH2CH2O)2CH2CH2NMe3+}; disulfide 1-6) are 0.01 to 0.1 nM and less than 10 nM.
On to `CC(=O)NCCCC[C@@H]1NC(=O)[C@H](Cc2c[nH]c3c(C)cccc23)NC(=O)[C@H]([C@@H](C)O)NC(=O)[C@H](CC(N)=O)NC(=O)[C@@H](NC(=O)[C@@H](CCCNC(=N)N)NC(C)=O)C(C)(C)SSC(C)(C)[C@@H](C(=O)N[C@@H](Cc2ccc(OCCN)cc2)C(=O)N[C@@H](Cc2ccc3cc(-c4ccc(N5CCOCC5)cc4)ccc3c2)C(=O)NC2(C(=O)N[C@@H](CCC(=O)O)C(=O)N[C@@H](CC(N)=O)C(=O)NC3(C(N)=O)CCOCC3)CCOCC2)NC1=O` [SEQ ID NO: 432, MeCO-r-Pen(3)-N-T-7MeW-K(Ac)-Pen(3)-AEF-2Nal6(Ph4(NMorph))-THP-E-N-THP-CONH2] (Ac-[dR][Pen]NT[Trp(7-Me)]K(Ac)[Pen][AEF][X4][Thp]EN[Thp]-NH2; disulfide 2-7), for which the half-maximal inhibitory concentration (IC50) at IL-23R is more than 100 nM.

B1: SEQ ID NO: 86 (peptide)
peptide: R[Pen]NT[Trp(7-Me)]K(Ac)[Pen][2‑amino‑3‑(4-(2-aminoethoxy)phenyl)propanoic acid][2‑amino‑3‑(6-hydroxynaphthalen-2-yl)propanoic acid][Thp]KN[3Pal][Sar]
modifications: not fully specified (bridges); ends and bridges not checked; also: K11: lipidated lysine, lipid not given here
Take B1: the IL23R Reporter Assay IC50 in assay [2] was less than 10 nM.
In assay [2], R[Pen]NT[Trp(7-Me)]K(Ac)[Pen][2‑amino‑3‑(4-(2-aminoethoxy)phenyl)propanoic acid][2‑amino‑3‑(5-bromonaphthalen-2-yl)propanoic acid][Thp]EN[Thp] (disulfide 2-7 (inferred); ends not checked) [SEQ ID NO: 443] displayed a PBMC pSTAT3 IC50 of more than 1 nM.
Same read-out and setting: in the case of R[Pen]NT[Trp(7-Me)]K(Ac)[Pen][2‑amino‑3‑(4-(2-aminoethoxy)phenyl)propanoic acid][2‑amino‑3‑(6-(4-methoxyphenyl)naphthalen-2-yl)propanoic acid][Thp]EN[Thp] (disulfide 2-7 (inferred); ends not checked) [SEQ ID NO: 438] it was more than 1 nM.

B2: SEQ ID NO: 85 (peptide)
peptide: K[Pen]NT[Trp(7-Me)]K(Ac)[Pen][2‑amino‑3‑(4-(2-aminoethoxy)phenyl)propanoic acid][2‑amino‑3‑(6-hydroxynaphthalen-2-yl)propanoic acid][Thp]K(Ac)N[3Pal][Sar]
modifications: not fully specified (bridges); ends and bridges not checked; also: K1: lipidated lysine, lipid not given here
As to B2, the IL23R Reporter Assay IC50 in assay [2] is less than 10 nM.

B3: SEQ ID NO: 87 (peptide)
peptide: R[Pen]NT[Trp(7-Me)]K(Ac)[Pen][2‑amino‑3‑(4-(2-aminoethoxy)phenyl)propanoic acid][2‑amino‑3‑(6-hydroxynaphthalen-2-yl)propanoic acid][Thp]KN[3Pal][Sar]
modifications: not fully specified (bridges); ends and bridges not checked; also: K11: lipidated lysine, lipid not given here
B3 showed an IL23R Reporter Assay IC50 in assay [2] of less than 10 nM.

B4: SEQ ID NO: 84 (peptide)
peptide: R[Pen]NT[Trp(7-Me)]K[Pen][2‑amino‑3‑(4-(2-aminoethoxy)phenyl)propanoic acid][2‑amino‑3‑(6-hydroxynaphthalen-2-yl)propanoic acid][Thp]EN[3Pal][Sar]
modifications: not fully specified (bridges); ends and bridges not checked; also: K6: lipidated lysine, lipid not given here
In turn, B4 registered an IL23R Reporter Assay IC50 in assay [2] of less than 10 nM.
The molecule R[Pen]NT[Trp(7-Me)]K(Ac)[Pen][2‑amino‑3‑(4-(2-aminoethoxy)phenyl)propanoic acid][2‑amino‑3‑(6-hydroxynaphthalen-2-yl)propanoic acid][Thp]EN[X5][Sar] (disulfide 2-7 (inferred); ends not checked) [SEQ ID NO: 440] yielded a PBMC pSTAT3 IC50 in assay [2] of more than 1 nM.

The values are drawn from patent US20240279281A1, “Peptide Inhibitors of Interleukin-23 Receptor” (Janssen Pharmaceutica NV, priority 2023, published 2024).
